Here are results for eleven molecules from patent US10047084B2, “Imidazolone derivatives, pharmaceutical compositions and uses thereof” (BEIJING FORELANDPHARMA CO. LTD., priority 2013, dated 2018).

Some results are limits rather than exact numbers.

One experiment addresses mTOR kinase (Homo sapiens (Human), UniProt P42345). As to the kind of experiment: mTOR kinase activity assay (TR-FRET, GFP-4EBP1 substrate). Conditions: read-out: Enzyme (mTOR) IC50. It counts as biochemical. How it is done:
1. mTOR Kinase Activity Assay: The inhibition of the mTOR protein kinase activity by the compounds was determined by the enzymatic activity assay in vitro. The detection kit supplied by Invitrogen was used to detect the inhibition of the activity of the mTOR […]. The principle of the assay was as follows: mTOR kinase, fluorescein-labeled substrate and ATP were mixed, and after the reaction, EDTA and terbium-labeled first antibody were added. During the chemical reaction process of the mTOR kinase, the antibody recognized the phosphorylated and fluorescein-labeled substrate, and then the “time-resolved fluorescence resonance energy transfer” (TR-FRET) effect was enhanced. TR-FRET effect was calculated as the ratio of signals from the acceptor fluorescein to signals from the donor terbium. The amount of the antibody bound to the tracer was directly proportional to the amount of the phosphorylated substrate after the reaction. In this way, the kinase activity can be detected. In this assay, the substrate of the mTOR kinase was green fluorescent protein-coupled 4E binding protein 1 (GFP-4EBP1).
1.1 Materials and Instruments:
4-Hydroxyethylpiperazine ethanesulfonic acid (HEPES, Sigma, Cat# SH3375), ethylene glycol-bis-(2-aminoethylether)-tetraacetic acid (EGTA, Sigma, Cat# E3889), manganese chloride (MnCl2, Sigma, Cat# M1787), Tween-20 (Tween-20, Amresco), 1,4-dithiothreitol (DTT, Merck, CB233155),
On the technique in general: TR-FRET usually uses a lanthanide donor and a delayed reading to cut background.

In the next experiment the test system is SK-BR3/BT474. As to the kind of experiment: CTG cell survival assay, SK-BR3/BT474. The class given is cell-based. The settings on record: SK-BR3/BT474 cells. The text has this: (§1) 2. CTG Cell Survival Assay:
(§2) ATP is necessarily produced during the metabolic activities of viable cells, and there is a linear relationship between the content of ATP and the number of viable cells. Cell viability assay by CTG chemiluminescence is a general method for detecting the number of viable cells in the culture cells based on this principle. The addition of the CellTiter-Glo (CTG) reagent may induce cell lysis and produce chemiluminescent signals directly proportional to the amount of ATP in the well-plate, and thereby the cell proliferation activity in the well-plate can be measured by the reading values from the chemiluminescence.
(§3) 2.1 Experimental Materials and Instruments:
(§4) 2.4 Experimental Procedure: • 1.4.1 Cell Thawing: Cryogenic vials were removed from the liquid nitrogen container, directly immersed in a water bath at 37° C., and shaked from time to time to thaw. The cryogenic vials were removed from the water bath at 37° C., and transferred to the biosafe cabinet. Their lids were opened, and the cell suspensions were aspirated with pipettes, added to centrifuge tubes, and then added with more than 10 volumes of culture solution, mixed well; centrifuged for 5 min at 1000 rpm; the supernatant was discarded, and medium containing cell growth was added to resuspend cells. All cell suspensions were seeded to the T25 culture flasks and static cultured in an incubator at 37° C.; the culture solution were changed once on the next day, and continued to be cultured. • 2.4.2 Cell Passaging: After cells were grown to logarithmic phase and were 80%-90% confluent, cells were removed and placed in the biosafe cabinet, the old culture solution was discarded, and the cells were wetted and washed with PBS once or twice. An appropriate amount of 0.25% Trypsin-EDTA solution was added to the culture flasks. The flasks were placed in the carbon dioxide incubator at 37° C. for 2-5 min. An appropriate amount of cell growth medium containing 10% PBS was added to terminate the digestion, lightly swished, and transferred to the centrifuge tubes and centrifuged for 5 min at 1000 rpm. The cells were prepare (into cell suspensions for passaging and experimental use. • 2.4.3 Cell Plating • 2.4.3.1 A cell suspension was prepared: After cells were grown to logarithmic phase and were 80%-90% confluent, the cells were removed to the biosafe cabinet, and the old culture solution was discarded, then the cells were wetted and washed with PBS once or twice. An appropriate amount of 0.25% Trypsin-EDTA solution was added to the culture flask. The flask was placed in a carbon dioxide incubator at 37° C. for 2-5 min. An appropriate amount of the cell growth medium containing 10% PBS was added to terminate digestion, and was lightly swished. The solution was transferred to a centrifuge tube, centrifuged for 5 min at 1000 rpm, and counted. […] Secondly, 20 uM of the compound to be tested was diluted with the cell growth medium containing 0.2% DMSO in 3-fold dilution to obtain 9 concentrations, and there were 10 concentration gradients in total. • 2.4.4.3 Addition of the compounds to be tested: the prepared gradient dilution solutions of compounds to be tested were taken and added to the cell culture plate at 100 ul/well; at this point, the maximum concentration of compounds to be tested was 10 uM, and the concentration of DMSO was 0.1%.

Another experiment relates to PC-3. As to the kind of experiment: CTG cell survival assay, PC-3. It counts as cell-based. Conditions: Homo sapiens, PC-3 cells.
From the text: as §1, §2, §3, §4

In the next experiment the test system is MV-4-11. Nature of the experiment: CTG cell survival assay, MV-4-11. The class given is cell-based. The settings on record: Homo sapiens, MV4-11, MV-4-11 cells.
From the text: as §1, §2, §3
2.1.1 Experimental Materials: compounds to be tested, cell basal culture medium, RPMI Medium 1640 (Invitrogen, Cat#11875-093), fetal calf serum (FBS): Hyclone FETAL BOVINE SERUM DEFINED (Invitrogen, Cat#SH30070.03), antibiotics: Penicilin Streptomycin (Invitrogen, Cat#15140-122), phosphate buffer (Corning Cellgro, Cat#R21-040-CV), cell digestive solution: 0.25% Trypsin-EDTA (Invitrogen, Cat#25200-056), CTG detection kit: Promega, Cat#G7571, flat-bottom 96-well black bottom plate: NUNC, Cat#165305, T25 culture flask: NUNC, Cat#156367, T75 culture flask: NUNC, Cat#156439
2.2 Experimental Instruments: Carbon Dioxide Incubator, SANYO-MCO-20AIC, Biosafe Cabinet: BSC-1360-LIIA2, Table-Top High-Speed Refrigerated Centrifuge: SorvallST 16R, Microplate Rapid Oscillator: QB-9001, M3 Reader: SpectraMax M3, Microscope: OLYMPUS-CKX41/CKX31.
2.3 Preparation of Solutions and Reagents: Formulation of cell growth medium: RPMI Medium 1640+10% FBS+antibiotics, others: trypsin digestive solution, phosphate buffer (PBS), DMSO, CTG detection kit.
2.4 Experimental Procedure: • 1.4.1 Cell Thawing: Cryogenic vials were removed from the liquid nitrogen container, directly immersed in a water bath at 37° C., and shaked from time to time to thaw. The cryogenic vials were removed from the water bath at 37° C., and transferred to the biosafe cabinet. Their lids were opened, and the cell suspensions were aspirated with pipettes, added to centrifuge tubes, and then added with more than 10 volumes of culture solution, mixed well; centrifuged for 5 min at 1000 rpm; the supernatant was discarded, and medium containing cell growth was added to resuspend cells. All cell suspensions were seeded to the T25 culture flasks and static cultured in an incubator at 37° C.; the culture solution were changed once on the next day, and continued to be cultured. • 2.4.2 Cell Passaging: After cells were grown to logarithmic phase and were 80%-90% confluent, cells were removed and placed in the biosafe cabinet, the old culture solution was discarded, and the cells were wetted and washed with PBS once or twice. An appropriate amount of 0.25% Trypsin-EDTA solution was added to the culture flasks. The flasks were placed in the carbon dioxide incubator at 37° C. for 2-5 min. An appropriate amount of cell growth medium containing 10% PBS was added to terminate the digestion, lightly swished, and transferred to the centrifuge tubes and centrifuged for 5 min at 1000 rpm. The cells were prepare (into cell suspensions for passaging and experimental use. • 2.4.3 Cell Plating • 2.4.3.1 A cell suspension was prepared: After cells were grown to logarithmic phase and were 80%-90% confluent, the cells were removed to the biosafe cabinet, and the old culture solution was discarded, then the cells were wetted and washed with PBS once or twice. An appropriate amount of 0.25% Trypsin-EDTA solution was added to the culture flask. The flask was placed in a carbon dioxide incubator at 37° C. for 2-5 min. An appropriate amount of the cell growth medium containing 10% PBS was added to terminate digestion, and was lightly swished. The solution was transferred to a centrifuge tube, centrifuged for 5 min at 1000 rpm, and counted. […]

Chain of mTOR kinase (P42345 1360-2549): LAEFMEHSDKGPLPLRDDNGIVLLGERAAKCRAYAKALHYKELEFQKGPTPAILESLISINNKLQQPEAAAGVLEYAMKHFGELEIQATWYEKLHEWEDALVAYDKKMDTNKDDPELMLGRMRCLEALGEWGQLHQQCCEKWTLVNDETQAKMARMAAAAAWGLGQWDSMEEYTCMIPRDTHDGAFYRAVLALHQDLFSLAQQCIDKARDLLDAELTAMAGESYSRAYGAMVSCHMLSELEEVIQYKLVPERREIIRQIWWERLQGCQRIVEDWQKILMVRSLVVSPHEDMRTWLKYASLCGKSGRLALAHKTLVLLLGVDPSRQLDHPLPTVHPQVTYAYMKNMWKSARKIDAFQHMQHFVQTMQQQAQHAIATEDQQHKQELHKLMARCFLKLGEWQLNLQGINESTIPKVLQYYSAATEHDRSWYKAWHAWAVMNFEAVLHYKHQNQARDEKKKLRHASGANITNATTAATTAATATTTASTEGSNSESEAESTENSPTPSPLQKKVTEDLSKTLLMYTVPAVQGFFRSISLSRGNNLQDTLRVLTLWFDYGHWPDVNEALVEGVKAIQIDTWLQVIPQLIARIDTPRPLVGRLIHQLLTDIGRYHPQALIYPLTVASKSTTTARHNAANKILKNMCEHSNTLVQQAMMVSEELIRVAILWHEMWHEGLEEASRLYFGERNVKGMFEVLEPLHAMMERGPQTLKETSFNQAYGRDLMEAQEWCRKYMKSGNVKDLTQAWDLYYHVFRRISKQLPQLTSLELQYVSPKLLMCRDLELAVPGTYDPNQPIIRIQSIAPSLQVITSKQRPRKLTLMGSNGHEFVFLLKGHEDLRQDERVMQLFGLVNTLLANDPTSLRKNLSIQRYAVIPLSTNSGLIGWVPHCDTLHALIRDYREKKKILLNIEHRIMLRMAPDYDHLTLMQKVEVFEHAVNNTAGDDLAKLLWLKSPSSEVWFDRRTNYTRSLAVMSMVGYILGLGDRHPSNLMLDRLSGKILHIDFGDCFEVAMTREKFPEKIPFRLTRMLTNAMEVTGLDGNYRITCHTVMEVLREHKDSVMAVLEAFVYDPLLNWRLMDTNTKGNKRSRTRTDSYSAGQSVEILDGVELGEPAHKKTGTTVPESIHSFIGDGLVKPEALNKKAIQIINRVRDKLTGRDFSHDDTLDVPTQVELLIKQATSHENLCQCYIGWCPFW

On to `Cn1cc(-c2ccc(-c3ccc4ncc5c(c4c3)n(C3CCCN(C(=O)c4nc[nH]n4)C3)c(=O)n5C)cn2)cn1` (stereo not shown) [Example 2, 1-(1-(1H-1,2,4-triazole-3-carbonyl)piperidin-3-yl)-3-methyl-8-(6-(1-methyl-1H-pyrazol-4-yl)pyridin-3-yl)-1H-imidazo[4,5-c]quinolin-2(3H)-one], for which, at mTOR kinase, the IC50 is 100 to 1000 nM.

As to `Cn1cc(-c2ccc(-c3ccc4ncc5c(c4c3)n(C3CCN(C(=O)CO)C3)c(=O)n5C)cn2)cn1` (stereo not shown) [Example 7, 1-(1-(2-hydroxyacetyl)pyrrolidin-3-yl)-3-methyl-8-(6-(1-methyl-1H-pyrazol-4-yl)pyridin-3-yl)-1H-imidazo[4,5-c]quinolin-2(3H)-one], the IC50 on mTOR kinase lay in the range of 100 to 1000 nM. Moreover, the EC50 with SK-BR3/BT474 and in the experiment with PC-3 was less than 1000 nM each time.

With `CC(=O)N1CCC(n2c(=O)n(C)c3cnc4ccc(-c5ccc(-c6cnn(C)c6)nc5)cc4c32)C1` (stereo not shown) [Example 11, 1-(1-acetylpyrrolidin-3-yl)-3-methyl-8-(6-(1-methyl-1H-pyrazol-4-yl)pyridin-3-yl)-1H-imidazo[4,5-c]quinolin-2(3H)-one], at mTOR kinase, the IC50 is 100 to 1000 nM. In addition, the 50% effective concentration (EC50) with SK-BR3/BT474 and in the experiment with PC-3 was less than 1000 nM in each case.

On to `Cn1cc(-c2ccc(-c3ccc4ncc5c(c4c3)n(C3CCN(S(=O)(=O)c4ccc(Cl)cc4)C3)c(=O)n5C)cn2)cn1` (stereo not shown) [Example 13, 1-(1-((4-chlorphenyl)sulfonyl)pyrrolidin-3-yl)-3-methyl-8-(6-(1-methyl-1H-pyrazol-4-yl)pyridin-3-yl)-1H-imidazo[4,5-c]quinolin-2(3H)-one], for which the concentration for half-maximal inhibition (IC50) on mTOR kinase lay in the range of 100 to 1000 nM. Further, the 50% effective concentration (EC50) in the experiment on SK-BR3/BT474 is less than 500 nM; in the experiment on PC-3, less than 1000 nM.

Take `Cc1ccc(S(=O)(=O)N2CCC(n3c(=O)n(C)c4cnc5ccc(-c6ccc(-c7cnn(C)c7)nc6)cc5c43)C2)cc1` (stereo not shown) [Example 14, 3-methyl-8-(6-(1-methyl-1H-pyrazol-4-yl)pyridin-3-yl)-1-(1-p-toluenesulfonylpyrrolidin-3-yl)-1H-imidazo[4,5-c]quinolin-2(3H)-one]: the IC50 at mTOR kinase was in the range of 100 to 1000 nM. Also, the EC50 in the experiment on SK-BR3/BT474 is less than 200 nM; in the experiment on PC-3, less than 1000 nM.

With `Cn1cc(-c2ccc(-c3ccc4ncc5c(c4c3)n(C3CCN(S(N)(=O)=O)C3)c(=O)n5C)cn2)cn1` (stereo not shown) [Example 15, 3-(3-methyl-8-(6-(1-methyl-1H-pyrazol-4-yl)pyridin-3-yl)-2-oxo-2,3-dihydro-1H-imidazo[4,5-c]quinolin-1-yl)pyrrolidine-1-sulfamide], the half-inhibitory concentration (IC50) on mTOR kinase lay in the range of 100 to 1000 nM. Moreover, the values for the half-maximal effective concentration (EC50) in the experiment on SK-BR3/BT474 and in the experiment on PC-3 were less than 1000 nM and less than 500 nM, respectively.

Regarding `Cn1cc(-c2ccc(-c3ccc4ncc5c(c4c3)n(C3CCN(C(=O)C(F)(F)F)C3)c(=O)n5C)cn2)cn1` (stereo not shown) [Example 16, 3-methyl-8-(6-(1-methyl-1H-pyrazol-4-yl)pyridin-3-yl)-1-(1-(2,2,2-trifluoroacetyl)pyrrolidin-3-yl)-1H-imidazo[4,5-c]quinolin-2(3H)-one], at mTOR kinase, the IC50 lay in the range of 100 to 1000 nM. For the same molecule, in the experiment with PC-3, the EC50 was less than 1000 nM.

For `Cn1c(=O)n([C@H]2CC[C@@H](O)CC2)c2c3cc(-c4ccc(N)nc4)ccc3ncc21` [Example 26, 8-(6-aminopyridin-3-yl)1-((1s,4s)-4-hydroxycyclohexyl)-3-methyl-1H-imidazo[4,5-c]quinolin-2(3H)-one], the IC50 at mTOR kinase was less than 10 nM. In addition, the EC50 with MV-4-11 is less than 50 nM; in the experiment with SK-BR3/BT474, less than 200 nM.

As for `CCS(=O)(=O)N1CC[C@H](n2c(=O)n(C)c3cnc4ccc(-c5ccc(-c6cnn(C)c6)nc5)cc4c32)C1` [Example 29, (S)-1-(1-(ethylsulfonyl)pyrrolidin-3-yl)-3-methyl-8-(6-(1-methyl-1H-pyrazol-4-yl)pyridin-3-yl)-1H-imidazo[4,5-c]quinolin-2(3H)-one], the IC50 on mTOR kinase is less than 10 nM. For the same molecule, the EC50 in the experiment on MV-4-11 and in the experiment on SK-BR3/BT474 was less than 100 nM in each case.

On to `Cn1cc(-c2ccc(-c3ccc4ncc5c(c4n3)n([C@H]3CCN(S(C)(=O)=O)C3)c(=O)n5C)cn2)cn1` [Example 38, (S)-3-methyl-8-(6-(1-methyl-1H-pyrazol-4-yl)pyridin-3-yl)-1-(1-(methanesulfonyl)pyrrolidin-3-yl)-1H-imidazol-[4,5-c][1,5]naphthyridin-2(3H)-one], for which the IC50 on mTOR kinase is less than 10 nM. In the experiment on PC-3, this molecule came in with an EC50 of 21 nM.

Consider `Cn1c(=O)n([C@H]2CCN(S(C)(=O)=O)C2)c2c3nc(-c4ccc(-c5ccccc5)nc4)ccc3ncc21` [Example 39, (S)-3-methyl-1-(1-(methanesulfonyl)pyrrolidin-3-yl)-8-(6-phenylpyridin-3-yl)-1H-imidazo[4,5-c][1,5]naphthyridin-2(3H)-one], for which the IC50 at mTOR kinase is less than 10 nM. The same molecule came in with an EC50 with PC-3 of 37 nM.

By IC50 is commonly meant the concentration that gives 50% inhibition. As a reminder, the EC50 is the concentration needed to bring the measured effect to its halfway point.
